System: patients with Alagille syndrome (ALGS)
Assay: ASSERT-EXT open-label extension: ObsRO pruritus response
Assay type: in vivo, human
Details: placebo-odevixibat group; weeks 9-12 of ASSERT-EXT; 120 μg/kg/day
Experimental: ASSERT-EXT is a Phase 3, multi-center, open-label extension study designed to evaluate the long-term safety and efficacy of 120 μg/kg/day odevixibat in relieving pruritus in patients with ALGS. Patients who participated in the ASSERT trial (see Example 1) and met eligibility criteria for the ASSERT trial were eligible to participate. The duration of the treatment period is 72 weeks, followed by a 4-week Safety Follow-up Period. Clinic visits occur every 4 to 12 weeks. […]
Day 1 coincided with Week 24 in the ASSERT trial; however, if this was not possible due to logistic issues, patients enrolled in the ASSERT-EXT trial within 28 days of completion of the ASSERT trial. […] Two groups were analyzed up to an interim cut-off date of Sep. […]
Outcomes evaluated include pruritus, serum BAs, sleep, and treatment-emergent adverse events (TEAEs). The Primary Efficacy Endpoint is the change from baseline in scratching through Week 72 as measured by the Albireo ObsRO caregiver instrument.
Itching, Scratching, and Sleep Score. Itching, observed scratching, and sleep disturbance were recorded twice each day via eDiary. […] When logistically feasible, the same parent or caregiver recorded in the eDiary, and changes to the parent or caregiver who is performing the recording should be minimized. […] The caregiver recording in the eDiary was recorded. […]

Compound: CCCCC1(CCCC)CN(c2ccccc2)c2cc(SC)c(OCC(=O)N[C@@H](C(=O)N[C@@H](CC)C(=O)O)c3ccc(O)cc3)cc2S(=O)(=O)N1 [odevixibat, 1,1-dioxo-3,3-dibutyl-5-phenyl-7-methylthio-8-(N-{(R)-α-[N-((S)-1-carboxypropyl)carbamoyl]-4-hydroxybenzyl}carbamoylmethoxy)-2,3,4,5-tetrahydro-1,2,5-benzothiadiazepine]
- patients achieving a pruritus reduction ≥1-point from baseline: 70%

— patent publication US20240173333A1, “Treating Alagille Syndrome (ALGS)” (priority 2022, published 2024)
